Like-named read-outs stand apart in the source and are kept apart here. Peptide text beside a SMILES is read from it.
Experiments:
Type in all cases: cell-based
[1] = molecular target: T1, human glucagon (GCG) receptor (Homo sapiens, UniProt P47871); experiment: HTRF cAMP assay in HEK-293 cells expressing human glucagon receptor
T1 construct: expressed in transfected cells; host or cells: PSC-HEK-293
Method: (§1) Each vial contained 1.8 ml cells. The vials were slowly frozen to −80° C. in isopropanol, and then transferred in liquid nitrogen for storage.
(§2) Cells were resuspended in assay buffer (cell buffer plus 2 mM IBMX) and adjusted to a cell density of 1 million cells/ml.
(§3) For measurement of cAMP generation, 5 μl cells (final 5000 cells/well) and 5 μl of test compound were added to a 384-well plate, followed by incubation for 30 min at room temperature.
(§4) The cAMP generated was determined using a kit from Cisbio Corp. based on HTRF (Homogenous Time Resolved Fluorescence). The cAMP assay was performed according to manufacturer's instructions (Cisbio).

[2] = molecular target: T2, human GIP receptor (Homo sapiens, UniProt P48546); experiment: HTRF cAMP assay in HEK-293 cells expressing human GIP receptor
T2 construct: expressed in transfected cells; host or cells: PSC-HEK-293
T2 sequence (P48546 22-466): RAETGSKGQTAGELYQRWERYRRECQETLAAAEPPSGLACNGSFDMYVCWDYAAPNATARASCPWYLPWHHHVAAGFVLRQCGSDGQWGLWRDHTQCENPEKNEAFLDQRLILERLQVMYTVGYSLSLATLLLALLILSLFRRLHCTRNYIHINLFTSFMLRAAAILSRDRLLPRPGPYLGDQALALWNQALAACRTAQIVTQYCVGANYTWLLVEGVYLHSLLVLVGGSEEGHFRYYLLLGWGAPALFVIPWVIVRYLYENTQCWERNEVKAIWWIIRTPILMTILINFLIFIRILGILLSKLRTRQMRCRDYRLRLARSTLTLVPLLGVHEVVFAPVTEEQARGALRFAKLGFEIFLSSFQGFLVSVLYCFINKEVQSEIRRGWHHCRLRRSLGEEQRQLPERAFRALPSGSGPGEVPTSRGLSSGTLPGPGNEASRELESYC
Method: as §1, §2, §3, §4

[3] = molecular target: T3, human GLP-1 receptor (Homo sapiens, UniProt P43220); experiment: HTRF cAMP assay in HEK-293 cells expressing human GLP-1 receptor
T3 construct: expressed in transfected cells; host or cells: PSC-HEK-293
T3 sequence (P43220 24-463): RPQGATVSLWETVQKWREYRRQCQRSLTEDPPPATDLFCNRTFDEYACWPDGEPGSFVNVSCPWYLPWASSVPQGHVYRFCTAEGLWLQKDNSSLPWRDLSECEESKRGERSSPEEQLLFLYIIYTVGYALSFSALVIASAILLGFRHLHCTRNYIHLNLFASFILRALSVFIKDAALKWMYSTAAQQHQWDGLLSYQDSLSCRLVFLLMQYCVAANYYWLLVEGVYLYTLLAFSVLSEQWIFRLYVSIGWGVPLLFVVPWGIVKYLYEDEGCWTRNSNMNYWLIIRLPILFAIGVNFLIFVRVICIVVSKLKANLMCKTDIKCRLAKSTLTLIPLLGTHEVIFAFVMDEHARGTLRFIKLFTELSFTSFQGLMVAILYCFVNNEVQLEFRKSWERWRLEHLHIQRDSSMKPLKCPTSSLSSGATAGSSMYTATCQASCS
Method: as §1, §2, §3, §4

T1 sequence (P47871 26-477): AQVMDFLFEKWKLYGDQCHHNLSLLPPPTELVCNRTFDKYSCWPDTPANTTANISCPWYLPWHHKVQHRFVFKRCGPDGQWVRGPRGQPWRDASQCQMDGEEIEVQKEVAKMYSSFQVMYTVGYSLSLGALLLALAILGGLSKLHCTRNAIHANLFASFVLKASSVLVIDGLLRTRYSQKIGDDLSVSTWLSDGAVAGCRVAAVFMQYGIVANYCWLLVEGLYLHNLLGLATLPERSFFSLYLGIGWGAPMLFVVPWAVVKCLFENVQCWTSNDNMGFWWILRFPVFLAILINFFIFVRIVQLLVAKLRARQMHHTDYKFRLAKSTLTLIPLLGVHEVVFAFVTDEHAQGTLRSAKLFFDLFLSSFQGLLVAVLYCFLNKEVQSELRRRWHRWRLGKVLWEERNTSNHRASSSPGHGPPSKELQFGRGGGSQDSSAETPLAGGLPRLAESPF

Row | Compound | EC50 [3] [nM] | also measured
1 | CC[C@H](C)[C@H](NC(=O)[C@H](Cc1ccccc1)NC(=O)[C@H](CC(C)C)NC(=O)[C@H](CCCNC(=N)N)NC(=O)[C@@H](NC(=O)[C@H](C)NC(=O)[C@H](CCC(=O)O)NC(=O)[C@H](CCC(=O)O)NC(=O)[C@H](CCC(=O)O)NC(=O)[C@H](CC(C)C)NC(=O)[C@H](CCC(N)=O)NC(=O)[C@H](CCCCN)NC(=O)[C@H](CO)NC(=O)[C@H](CCCCN)NC(=O)[C@H](CC(=O)O)NC(=O)[C@H](CO)NC(=O)[C@@H](NC(=O)[C@H](Cc1ccccc1)NC(=O)[C@@H](NC(=O)CNC(=O)[C@H](CCC(=O)O)NC(=O)CNC(=O)[C@H](Cc1c[nH]cn1)NC(=O)CN)[C@@H](C)O)[C@@H](C)O)C(C)C)C(=O)N[C@@H](CCC(=O)O)C(=O)N[C@@H](Cc1c[nH]c2ccccc12)C(=O)N[C@@H](CC(C)C)C(=O)N[C@@H](CCCCN)C(=O)N[C@@H](C)C(=O)NCC(=O)NCC(=O)N1CCC[C@H]1C(=O)N[C@@H](CO)C(=O)N[C@@H](CO)C(=O)NCC(=O)N[C@@H](C)C(=O)N1CCC[C@H]1C(=O)N1CCC[C@H]1C(=O)N1CCC[C@H]1C(=O)N[C@@H](CO)C(N)=O [Ab P021] (H-GHGEGTFTSDKSKQLEEEAVRLFIEWLKAGGPSSGAPPPS-NH2) | 0.0276 | EC50 [1]: > 10 nM; EC50 [2]: > 10 nM
2 | CC[C@H](C)[C@H](NC(=O)[C@H](CO)NC(=O)[C@H](CC(C)C)NC(=O)[C@H](CC(=O)O)NC(=O)[C@H](CO)NC(=O)[C@@H](NC(=O)[C@H](Cc1ccccc1)NC(=O)[C@@H](NC(=O)CNC(=O)[C@H](CCC(=O)O)NC(=O)CNC(=O)[C@H](Cc1c[nH]cn1)NC(=O)CN)[C@@H](C)O)[C@@H](C)O)C(=O)N[C@@H](CCC(N)=O)C(=O)N[C@@H](CC(C)C)C(=O)N[C@@H](CCC(=O)O)C(=O)N[C@@H](CCC(=O)O)C(=O)N[C@@H](CCC(=O)O)C(=O)N[C@@H](C)C(=O)N[C@H](C(=O)N[C@@H](CCCNC(=N)N)C(=O)N[C@@H](CC(C)C)C(=O)N[C@@H](Cc1ccccc1)C(=O)N[C@H](C(=O)N[C@@H](CCC(=O)O)C(=O)N[C@@H](Cc1c[nH]c2ccccc12)C(=O)N[C@@H](CC(C)C)C(=O)N[C@@H](CC(C)C)C(=O)N[C@@H](C)C(=O)NCC(=O)NCC(=O)N1CCC[C@H]1C(=O)N[C@@H](CO)C(=O)N[C@@H](CO)C(=O)NCC(=O)N[C@@H](C)C(=O)N1CCC[C@H]1C(=O)N1CCC[C@H]1C(=O)N1CCC[C@H]1C(=O)N[C@@H](CO)C(N)=O)[C@@H](C)CC)C(C)C [Ab P019] | 0.0276 | 
3 | CC[C@H](C)[C@H](NC(=O)[C@H](CO)NC(=O)[C@H](CC(C)C)NC(=O)[C@H](CC(=O)O)NC(=O)[C@H](CO)NC(=O)[C@@H](NC(=O)[C@H](Cc1ccccc1)NC(=O)[C@@H](NC(=O)CNC(=O)[C@H](CCC(=O)O)NC(=O)CNC(=O)[C@@H](N)Cc1c[nH]cn1)[C@@H](C)O)[C@@H](C)O)C(=O)N[C@@H](CCC(N)=O)C(=O)N[C@@H](CC(C)C)C(=O)N[C@@H](CC(=O)O)C(=O)N[C@@H](CCC(=O)O)C(=O)N[C@@H](CCC(=O)O)C(=O)N[C@@H](C)C(=O)N[C@H](C(=O)N[C@@H](CCCNC(=N)N)C(=O)N[C@@H](CC(C)C)C(=O)N[C@@H](Cc1ccccc1)C(=O)N[C@H](C(=O)N[C@@H](CCC(=O)O)C(=O)N[C@@H](Cc1c[nH]c2ccccc12)C(=O)N[C@@H](CC(C)C)C(=O)N[C@@H](CCC(=O)O)C(=O)N[C@@H](C)C(=O)N[C@H](C(=O)NCC(=O)N1CCC[C@H]1C(=O)N[C@H](C(=O)N[C@@H](CO)C(=O)NCC(=O)N[C@@H](C)C(=O)N1CCC[C@H]1C(=O)N1CCC[C@H]1C(=O)N1CCC[C@H]1C(=O)N[C@@H](CO)C(N)=O)C(C)C)[C@@H](C)O)[C@@H](C)CC)C(C)C [Ab P006] (H-HGEGTFTSDLSIQLDEEAVRLFIEWLEATGPVSGAPPPS-NH2) | 0.0147 | 
4 | CC[C@H](C)[C@H](NC(=O)[C@H](Cc1ccccc1)NC(=O)[C@H](CC(C)C)NC(=O)[C@H](CCC(N)=O)NC(=O)[C@@H](NC(=O)[C@H](C)NC(=O)[C@H](CCC(=O)O)NC(=O)[C@H](CCC(=O)O)NC(=O)[C@H](CCC(=O)O)NC(=O)[C@H](CC(C)C)NC(=O)[C@H](CCC(N)=O)NC(=O)[C@H](CCCCN)NC(=O)[C@H](CO)NC(=O)[C@H](CC(C)C)NC(=O)[C@H](CC(=O)O)NC(=O)[C@H](CO)NC(=O)[C@@H](NC(=O)[C@H](Cc1ccccc1)NC(=O)[C@@H](NC(=O)CNC(=O)[C@H](CCC(=O)O)NC(=O)CNC(=O)[C@@H](N)Cc1c[nH]cn1)[C@@H](C)O)[C@@H](C)O)C(C)C)C(=O)N[C@@H](CCC(=O)O)C(=O)N[C@@H](Cc1c[nH]c2ccccc12)C(=O)N[C@@H](CC(C)C)C(=O)N[C@@H](CC(C)C)C(=O)N[C@@H](C)C(=O)N[C@H](C(=O)NCC(=O)N1CCC[C@H]1C(=O)N[C@@H](CO)C(=O)N[C@@H](CO)C(=O)NCC(=O)N[C@@H](C)C(=O)N1CCC[C@H]1C(=O)N1CCC[C@H]1C(=O)N1CCC[C@H]1C(=O)N[C@@H](CO)C(N)=O)[C@@H](C)O [Ab P010] (H-HGEGTFTSDLSKQLEEEAVQLFIEWLLATGPSSGAPPPS-NH2) | 0.0035 | 
5 | CC[C@H](C)[C@H](NC(=O)[C@H](CO)NC(=O)[C@H](CC(C)C)NC(=O)[C@H](CC(=O)O)NC(=O)[C@H](CO)NC(=O)[C@@H](NC(=O)[C@H](Cc1ccccc1)NC(=O)[C@@H](NC(=O)CNC(=O)[C@H](CCC(=O)O)NC(=O)CNC(=O)[C@@H](N)Cc1c[nH]cn1)[C@@H](C)O)[C@@H](C)O)C(=O)N[C@@H](CCC(N)=O)C(=O)N[C@@H](CC(C)C)C(=O)N[C@@H](CC(=O)O)C(=O)N[C@@H](CCC(=O)O)C(=O)N[C@@H](CCC(=O)O)C(=O)N[C@@H](C)C(=O)N[C@H](C(=O)N[C@@H](CCCNC(=N)N)C(=O)N[C@@H](CC(C)C)C(=O)N[C@@H](Cc1ccccc1)C(=O)N[C@H](C(=O)N[C@@H](CCC(=O)O)C(=O)N[C@@H](Cc1c[nH]c2ccccc12)C(=O)N[C@@H](CC(C)C)C(=O)N[C@@H](CC(C)C)C(=O)N[C@@H](C)C(=O)N[C@H](C(=O)NCC(=O)N1CCC[C@H]1C(=O)N[C@H](C(=O)N[C@@H](CO)C(=O)NCC(=O)N[C@@H](C)C(=O)N1CCC[C@H]1C(=O)N1CCC[C@H]1C(=O)N1CCC[C@H]1C(=O)N[C@@H](CO)C(N)=O)C(C)C)[C@@H](C)O)[C@@H](C)CC)C(C)C [Ab P005] | 0.0031 | 
6 | CC[C@H](C)[C@H](NC(=O)[C@H](CO)NC(=O)[C@H](CC(C)C)NC(=O)[C@H](CC(=O)O)NC(=O)[C@H](CO)NC(=O)[C@@H](NC(=O)[C@H](Cc1ccccc1)NC(=O)[C@@H](NC(=O)CNC(=O)[C@H](CCC(=O)O)NC(=O)CNC(=O)[C@H](Cc1c[nH]cn1)NC(=O)CN)[C@@H](C)O)[C@@H](C)O)C(=O)N[C@@H](CCC(N)=O)C(=O)N[C@@H](CC(C)C)C(=O)N[C@@H](CCC(=O)O)C(=O)N[C@@H](CCC(=O)O)C(=O)N[C@@H](CCC(=O)O)C(=O)N[C@@H](C)C(=O)N[C@H](C(=O)N[C@@H](CCCNC(=N)N)C(=O)N[C@@H](CC(C)C)C(=O)N[C@@H](Cc1ccccc1)C(=O)N[C@H](C(=O)N[C@@H](CCC(=O)O)C(=O)N[C@@H](Cc1c[nH]c2ccccc12)C(=O)N[C@@H](CC(C)C)C(=O)N[C@@H](CC(C)C)C(=O)N[C@@H](C)C(=O)N[C@H](C(=O)NCC(=O)N1CCC[C@H]1C(=O)N[C@@H](CO)C(=O)N[C@@H](CO)C(=O)NCC(=O)N[C@@H](C)C(=O)N1CCC[C@H]1C(=O)N1CCC[C@H]1C(=O)N1CCC[C@H]1C(=O)N[C@@H](CO)C(N)=O)[C@@H](C)O)[C@@H](C)CC)C(C)C [Ab P020] | 0.206 | 
7 | CC[C@H](C)[C@H](NC(=O)[C@H](Cc1ccccc1)NC(=O)[C@H](CCC(=O)O)NC(=O)[C@H](Cc1c[nH]cn1)NC(=O)[C@H](CCC(N)=O)NC(=O)[C@H](C)NC(=O)[C@H](CCCNC(=N)N)NC(=O)[C@H](CCCCN)NC(=O)[C@H](CCC(=O)O)NC(=O)[C@H](CC(C)C)NC(=O)[C@H](CC(C)C)NC(=O)[C@H](CCC(=O)O)NC(=O)[C@H](CO)NC(=O)[C@H](CC(C)C)NC(=O)[C@H](CC(=O)O)NC(=O)[C@H](CO)NC(=O)[C@@H](NC(=O)[C@H](Cc1ccccc1)NC(=O)[C@@H](NC(=O)CNC(=O)[C@H](CCC(=O)O)NC(=O)CNC(=O)[C@@H](N)Cc1c[nH]cn1)[C@@H](C)O)[C@@H](C)O)C(=O)N[C@@H](CCC(=O)O)C(=O)N[C@@H](Cc1c[nH]c2ccccc12)C(=O)N[C@@H](CC(C)C)C(=O)N[C@@H](CCCCN)C(=O)N[C@@H](C)C(=O)NCC(=O)NCC(=O)N1CCC[C@H]1C(=O)N[C@@H](CO)C(=O)N[C@@H](CO)C(=O)NCC(=O)N[C@@H](CCCCN)C(=O)N1CCC[C@H]1C(=O)N1CCC[C@H]1C(=O)N1CCC[C@H]1C(=O)N[C@@H](CCCCN)C(N)=O [Ab P032] (H-HGEGTFTSDLSELLEKRAQHEFIEWLKAGGPSSGKPPPK-NH2; N-terminus assumed) |  | EC50 ([1]; HEK-293 cells, read-out: HTRF cAMP EC50 Human GCGR): > 10 nM; EC50 ([2]; HEK-293 cells, read-out: HTRF cAMP EC50 Human GIPR): 2.37 nM

From patent US20250115669A1, “FGFR1/KLB Targeting Agonistic Antigen-Binding Proteins and Conjugates Thereof with GLP-1R Agonistic Peptides” (SANOFI, priority 2020, published 2025)
